Test results: ChEMBL document CHEMBL4483862, “Open-source discovery of chemical leads for next-generation chemoprotective antimalarials” (2018)

Test system: Plasmodium berghei
Experiment: Luciferase/luciferin-expressing antifolate-resistant parasites were used to infect a culture of HepG2 cells that were pre-incubated with compounds. Infected hepatocytes emit light due to the luciferase reaction. Assay results are presented as the percent inhibition of light emission compared to control. […]
Format: functional
Conditions: sporozoite; for IC90: read-out: LUCIFERASE INFECTION ASSAY - IC90
[1] = read-out: LUCIFERASE INFECTION ASSAY - IC50

| SMILES | IC50 [1] | IC90 | further results |
| --- | --- | --- | --- |
| N#Cc1cc(NC(=O)c2cccc(Cl)c2)ccc1Sc1cccc(C(F)(F)F)c1 | > 7.62 µM | > 7.62 µM | – |
| Cc1oc(-c2ccc(Cl)cc2)cc1C(=O)Nc1cc(-c2cc(C(C)(C)C)oc2C)nn1-c1cc(C(F)(F)F)cc(C(F)(F)F)c1 | – | > 5.08 µM | IC50 (PBLUC_HILL_SLOPE 1.26, PBLUC_R_SQUARED 0.137, read-out: LUCIFERASE INFECTION ASSAY - IC50): > 5.08 µM |
| O=C(Nc1ncccc1O)c1ccc(CN2C(=O)c3ccccc3S2(=O)=O)cc1 | – | > 10 µM | IC50 (PBLUC_HILL_SLOPE 1.72, 0.775, PBLUC_R_SQUARED 0.614, 0.500, read-out: LUCIFERASE INFECTION ASSAY - IC50): 4.22 µM |
| CCOC(=O)/C=c1\s/c(=C\c2ccc(N3CCCCC3)c([N+](=O)[O-])c2)c(=O)n1CC(=O)N1CCC(C)CC1 | – | > 10 µM | IC50 (FFLUC_HILL_SLOPE 86.1, FFLUC_R_SQUARED 0.469, PBLUC_HILL_SLOPE 14.4, PBLUC_R_SQUARED 0.0813, read-out: LUCIFERASE INFECTION ASSAY - IC50): > 10 µM |
| O=C(NCC1CCCO1)c1cc2c([nH]c3ccccc32)c(-c2ccc(F)cc2)n1 (configuration not stated) | – | 8.34 µM | IC50 (HEPG2TOX_HILL_SLOPE 1.25, HEPG2TOX_R_SQUARED 0.9, PBLUC_HILL_SLOPE 2.06, PBLUC_R_SQUARED 0.74, read-out: LUCIFERASE INFECTION ASSAY - IC50): 2.86 µM |
| Nn1c(SC2CCCCC2=O)nnc1C1CCCCC1 (configuration not stated) | > 10 µM | > 10 µM | – |
| COc1cc(-c2nccc3n[nH]c(C)c23)cc(OC)c1OC | – | > 10 µM | IC50 (HEPG2TOX_HILL_SLOPE 1.13, HEPG2TOX_R_SQUARED 0.879, read-out: LUCIFERASE INFECTION ASSAY - IC50): > 10 µM |
| CSc1nccc(-c2sc3scc(C)c3c2C)n1 | > 11.3 µM | > 11.3 µM | – |
| Oc1cc(-c2ccccc2)nc2ccccc12 | – | 0.307 µM | IC50 (HEPG2TOX_HILL_SLOPE 0.704, HEPG2TOX_R_SQUARED 0.901, PBLUC_HILL_SLOPE 3.71, PBLUC_R_SQUARED 0.852, read-out: LUCIFERASE INFECTION ASSAY - IC50): 0.17 µM |
| C=CCN(c1ccccc1)S(=O)(=O)c1cccc(C(=O)Nc2ccnn2C(C)C2CC2)c1 (configuration not stated) | – | > 10 µM | IC50 (HEPG2TOX_HILL_SLOPE 0.485, HEPG2TOX_R_SQUARED 0.701, PBLUC_HILL_SLOPE 1.26, PBLUC_R_SQUARED 0.254, read-out: LUCIFERASE INFECTION ASSAY - IC50): > 10 µM |
| COC(=O)c1c(COC(=O)/C=C/c2ccc(OCC#N)c(OC)c2)nc2ccccc2c1-c1ccccc1 | > 10 µM | > 10 µM | – |
| CSc1nc(=NC(=O)NS(=O)(=O)Oc2ccc(Cl)cc2Cl)n2nc(C3CC3)cc2[nH]1 | > 6.74 µM | > 6.74 µM | – |
| O=c1c2ccc(Cl)cc2nc(-c2cccc(C(F)(F)F)c2)n1O | > 9.69 µM | > 9.69 µM | – |
| CC(=O)n1nc(NCc2cccc(Cl)c2)nc1NCc1cccc(Cl)c1 | – | > 8.46 µM | IC50 (PBLUC_HILL_SLOPE 1.95, PBLUC_R_SQUARED 0.375, read-out: LUCIFERASE INFECTION ASSAY - IC50): 4.3 µM |
| C=C(C)COc1ccc(-c2onc(C)c2-c2ccc(OC)c(OC)c2)c(O)c1 | 0.64 µM | 7.35 µM | – |
| O=C(OCc1cn(-c2ccccc2)nc1-c1ccccc1)c1ccc(N2CCOCC2)nc1 | > 10 µM | > 10 µM | – |
| Cc1cc(C(=O)CN2C(=O)NC3(CCCc4sccc43)C2=O)c(C)n1Cc1ccc2c(c1)OCO2 (configuration not stated) | – | > 10 µM | IC50 (PBLUC_HILL_SLOPE 2.26, PBLUC_R_SQUARED 0.443, read-out: LUCIFERASE INFECTION ASSAY - IC50): 8.17 µM |
| Brc1ccc(-c2noc(CCc3nc4ccccc4[nH]3)n2)cc1 | – | 7.07 µM | IC50 (HEPG2TOX_HILL_SLOPE 9.24, HEPG2TOX_R_SQUARED 0.722, PBLUC_HILL_SLOPE 3.58, PBLUC_R_SQUARED 0.661, read-out: LUCIFERASE INFECTION ASSAY - IC50): 3.83 µM |
| CCCNC(=O)C1(C)CCN(Cc2ccc3ccccc3n2)C1 (configuration not stated) | > 10.6 µM | > 10.6 µM | – |
| COc1cccc(-c2ccc3ncc(-c4ccc(NC(C)=O)cc4)n3n2)c1 | – | 3.39 µM | IC50 (HEPG2TOX_HILL_SLOPE 0.992, HEPG2TOX_R_SQUARED 0.946, PBLUC_HILL_SLOPE 0.779, PBLUC_R_SQUARED 0.716, read-out: LUCIFERASE INFECTION ASSAY - IC50): 0.202 µM |
| Cc1ccc(-n2c(SCC(=O)N3CCC(C)Sc4ccccc43)nnc2-c2ccccc2)cc1C (configuration not stated) | – | > 10 µM | IC50 (FFLUC_HILL_SLOPE 12.3, FFLUC_R_SQUARED 0.54, HEPG2TOX_HILL_SLOPE 7.7, HEPG2TOX_R_SQUARED 0.421, PBLUC_HILL_SLOPE 3.98, PBLUC_R_SQUARED 0.233, read-out: LUCIFERASE INFECTION ASSAY - IC50): 6.2 µM |

| SMILES | IC50 [1] | IC90 | further results |
| --- | --- | --- | --- |
| CCC(=O)/C(=N/Nc1ccccc1)C(=O)OC | > 14.1 µM | > 14.1 µM | – |
| COc1ccc(-c2cnc3cnc(-c4cc(OC)cc(OC)c4)cn23)cc1 | – | 3.63 µM | IC50 (HEPG2TOX_HILL_SLOPE 2.43, HEPG2TOX_R_SQUARED 0.949, PBLUC_HILL_SLOPE 13, PBLUC_R_SQUARED 0.663, read-out: LUCIFERASE INFECTION ASSAY - IC50): 3.06 µM |
| CC(Nc1ccc2c(c1)CCC2)C(=O)Nc1sccc1C(N)=O (configuration not stated) | – | 1.74 µM | IC50 (HEPG2TOX_HILL_SLOPE 0.241, HEPG2TOX_R_SQUARED 0.874, PBLUC_HILL_SLOPE 11.9, PBLUC_R_SQUARED 0.588, read-out: LUCIFERASE INFECTION ASSAY - IC50): 1.45 µM |
| O=C(NNC(=O)c1nn(-c2ccccc2)cc1O)c1ccc2c(c1)OCO2 | – | 6.28 µM | IC50 (PBLUC_HILL_SLOPE 71.1, PBLUC_R_SQUARED 0.59, read-out: LUCIFERASE INFECTION ASSAY - IC50): 6.09 µM |
| Cc1ccc(Br)cc1NC(=O)C(C)NC(=O)OC(C)(C)C (configuration not stated) | > 10 µM | > 10 µM | – |
| c1cnc(N2CCN(CCCNc3ncnc4sccc34)CC2)nc1 | – | > 10 µM | IC50 (FFLUC_HILL_SLOPE 14.8, FFLUC_R_SQUARED 0.258, HEPG2TOX_HILL_SLOPE 2.5, HEPG2TOX_R_SQUARED 0.964, PBLUC_HILL_SLOPE 9.27, PBLUC_R_SQUARED 0.473, read-out: LUCIFERASE INFECTION ASSAY - IC50): 8.5 µM |
| Cc1ccccc1-c1noc(CN(C2CCCc3ccccc32)S(C)(=O)=O)n1 (configuration not stated) | – | > 8.3 µM | IC50 (HEPG2TOX_HILL_SLOPE 2, HEPG2TOX_R_SQUARED 0.927, PBLUC_HILL_SLOPE 1.37, PBLUC_R_SQUARED 0.678, read-out: LUCIFERASE INFECTION ASSAY - IC50): 1.93 µM |
| CCCCNc1nc(-c2ccccc2)c(C(=O)OCC)cc1C#N | – | 9.48 µM | IC50 (HEPG2TOX_HILL_SLOPE 4.31, HEPG2TOX_R_SQUARED 0.989, PBLUC_HILL_SLOPE 14.5, PBLUC_R_SQUARED 0.263, read-out: LUCIFERASE INFECTION ASSAY - IC50): 8.14 µM |
| CCOc1ccc(S(=O)(=O)Nc2cc3c(C(=O)OC(C)C)c(C)oc3c3ccccc23)cc1 | – | 2.86 µM | IC50 (HEPG2TOX_HILL_SLOPE 2.94, HEPG2TOX_R_SQUARED 0.937, PBLUC_HILL_SLOPE 3.2, PBLUC_R_SQUARED 0.642, read-out: LUCIFERASE INFECTION ASSAY - IC50): 1.44 µM |
| COc1ccc(Cl)cc1COC(=O)COc1ccc2c(c1)CCC(=O)N2 | – | > 10 µM | IC50 (PBLUC_HILL_SLOPE 0.441, PBLUC_R_SQUARED 0.194, read-out: LUCIFERASE INFECTION ASSAY - IC50): > 10 µM |
| CNC(=O)c1ccc(CN(C2CC2)S(=O)(=O)c2ccc(C(F)(F)F)cc2)cc1 | – | > 10 µM | IC50 (PBLUC_HILL_SLOPE 1.42, PBLUC_R_SQUARED 0.391, read-out: LUCIFERASE INFECTION ASSAY - IC50): 3.3 µM |
| Nc1ccc(-c2cn3c(-c4cccc(O)c4)cnc3cn2)cn1 | – | > 10.9 µM | IC50 (PBLUC_HILL_SLOPE 9.28, PBLUC_R_SQUARED 0.463, read-out: LUCIFERASE INFECTION ASSAY - IC50): 9.03 µM |
| NC(c1ccccc1)c1csc(NC(=O)NC(c2ccccc2)c2ccccc2)n1 (configuration not stated) | > 7.96 µM | > 7.96 µM | – |
| Cc1ccc2nc(CN3CCN(C(c4ccc(F)cc4)c4ccc(F)cc4)CC3)cc(=O)n2c1 | – | 4.14 µM | IC50 (PBLUC_HILL_SLOPE 12.7, PBLUC_R_SQUARED 0.219, read-out: LUCIFERASE INFECTION ASSAY - IC50): 3.48 µM |
| N#Cc1ccc(-c2cnc3cnc(-c4ccc(CNc5ccccc5)cc4)cn23)cc1 | – | 6.67 µM | IC50 (HEPG2TOX_HILL_SLOPE 0.183, HEPG2TOX_R_SQUARED 0.0935, PBLUC_HILL_SLOPE 1.81, PBLUC_R_SQUARED 0.744, read-out: LUCIFERASE INFECTION ASSAY - IC50): 1.98 µM |
| C=CCN(c1ccccc1)S(=O)(=O)c1cccc(C(=O)Nc2ccc(CCCC)cc2)c1 | – | > 10 µM | IC50 (FFLUC_HILL_SLOPE 3.89, FFLUC_R_SQUARED 0.431, PBLUC_HILL_SLOPE 2.64, PBLUC_R_SQUARED 0.773, read-out: LUCIFERASE INFECTION ASSAY - IC50): 5.84 µM |
| O=C(Nc1cccc(Cl)c1)n1nccc1-c1ccc(-c2cccs2)s1 | > 8.55 µM | > 8.55 µM | – |
| Cc1ccc(Cl)cc1N1CCN(C(=O)NCc2ccco2)CC1 | – | > 10 µM | IC50 (HEPG2TOX_HILL_SLOPE 1.45, HEPG2TOX_R_SQUARED 0.763, PBLUC_HILL_SLOPE 1.12, PBLUC_R_SQUARED 0.27, read-out: LUCIFERASE INFECTION ASSAY - IC50): 5.99 µM |
| O=C(COc1ccccc1)Nc1nc2ccccn2c1C(=O)NC1CCCCC1 | – | 6.99 µM | IC50 (HEPG2TOX_HILL_SLOPE 7.86, HEPG2TOX_R_SQUARED 0.377, PBLUC_HILL_SLOPE 5.91, PBLUC_R_SQUARED 0.352, read-out: LUCIFERASE INFECTION ASSAY - IC50): 4.82 µM |
| Cc1ccc(S(=O)(=O)N(C)CC(=O)N(C)Cc2ccccc2OC(F)(F)F)cc1C | > 10 µM | > 10 µM | – |
